Laboratory results as given in patent publication US20100003250A1, “(2-ARYL-7H-PYRROLO[2,3-D]PYRIMIDIN-4-YL)MORPHOLINE COMPOUNDS, THEIR USE AS MTOR KINASE AND PI3 KINASE INHIBITORS, AND THEIR SYNTHESES” (Wyeth, priority 2008, published 2010).

Assays:
Type in all cases: biochemical
mTOR Kinase (FLAG-TOR) = target: T1, mTOR Kinase (FLAG-TOR) (Homo sapiens, UniProt P42345); test: mTOR kinase assay, purified enzyme, DELFIA format; settings: 100 μM ATP, 1.25 μM His6-S6K; read-out: mTOR Kinase Median IC50
T1 construct: FLAG

PI3Kα = PI3Kα (Homo sapiens, UniProt P42336); test: PI3K-alpha fluorescence polarization assay; settings: 20 μM PIP2, 25 μM ATP; read-out: PI3Kα Median IC50
PI3Kα, sequence (P42336 whole entry, species assumed): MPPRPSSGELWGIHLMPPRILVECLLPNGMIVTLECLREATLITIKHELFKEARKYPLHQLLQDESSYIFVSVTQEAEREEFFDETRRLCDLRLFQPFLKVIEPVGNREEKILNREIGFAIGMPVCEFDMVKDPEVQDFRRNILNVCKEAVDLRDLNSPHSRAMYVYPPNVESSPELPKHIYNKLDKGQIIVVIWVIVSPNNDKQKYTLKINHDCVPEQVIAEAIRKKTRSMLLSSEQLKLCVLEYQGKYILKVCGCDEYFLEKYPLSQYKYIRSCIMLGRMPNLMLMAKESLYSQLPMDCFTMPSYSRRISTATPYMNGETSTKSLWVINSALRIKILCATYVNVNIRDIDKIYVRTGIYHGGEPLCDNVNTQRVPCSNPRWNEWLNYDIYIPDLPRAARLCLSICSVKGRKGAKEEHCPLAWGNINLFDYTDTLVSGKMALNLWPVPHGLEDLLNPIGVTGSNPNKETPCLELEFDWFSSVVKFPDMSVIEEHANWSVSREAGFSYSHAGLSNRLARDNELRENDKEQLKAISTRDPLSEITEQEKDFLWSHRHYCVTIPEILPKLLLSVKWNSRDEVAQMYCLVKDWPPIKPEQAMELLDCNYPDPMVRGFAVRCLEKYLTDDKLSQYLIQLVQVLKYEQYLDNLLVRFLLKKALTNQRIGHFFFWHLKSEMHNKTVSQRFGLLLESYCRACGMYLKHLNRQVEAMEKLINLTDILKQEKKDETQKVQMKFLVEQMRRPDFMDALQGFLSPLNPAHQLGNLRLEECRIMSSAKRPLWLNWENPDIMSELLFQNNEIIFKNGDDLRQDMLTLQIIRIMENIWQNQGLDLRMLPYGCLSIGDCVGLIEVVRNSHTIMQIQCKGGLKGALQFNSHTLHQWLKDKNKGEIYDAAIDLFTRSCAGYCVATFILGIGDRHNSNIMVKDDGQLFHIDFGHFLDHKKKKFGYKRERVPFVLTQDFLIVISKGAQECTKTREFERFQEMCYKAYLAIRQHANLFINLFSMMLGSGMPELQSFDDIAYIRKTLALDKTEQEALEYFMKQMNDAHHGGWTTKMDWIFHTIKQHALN
PI3Kα, sequence (P27986 whole entry partner, species assumed): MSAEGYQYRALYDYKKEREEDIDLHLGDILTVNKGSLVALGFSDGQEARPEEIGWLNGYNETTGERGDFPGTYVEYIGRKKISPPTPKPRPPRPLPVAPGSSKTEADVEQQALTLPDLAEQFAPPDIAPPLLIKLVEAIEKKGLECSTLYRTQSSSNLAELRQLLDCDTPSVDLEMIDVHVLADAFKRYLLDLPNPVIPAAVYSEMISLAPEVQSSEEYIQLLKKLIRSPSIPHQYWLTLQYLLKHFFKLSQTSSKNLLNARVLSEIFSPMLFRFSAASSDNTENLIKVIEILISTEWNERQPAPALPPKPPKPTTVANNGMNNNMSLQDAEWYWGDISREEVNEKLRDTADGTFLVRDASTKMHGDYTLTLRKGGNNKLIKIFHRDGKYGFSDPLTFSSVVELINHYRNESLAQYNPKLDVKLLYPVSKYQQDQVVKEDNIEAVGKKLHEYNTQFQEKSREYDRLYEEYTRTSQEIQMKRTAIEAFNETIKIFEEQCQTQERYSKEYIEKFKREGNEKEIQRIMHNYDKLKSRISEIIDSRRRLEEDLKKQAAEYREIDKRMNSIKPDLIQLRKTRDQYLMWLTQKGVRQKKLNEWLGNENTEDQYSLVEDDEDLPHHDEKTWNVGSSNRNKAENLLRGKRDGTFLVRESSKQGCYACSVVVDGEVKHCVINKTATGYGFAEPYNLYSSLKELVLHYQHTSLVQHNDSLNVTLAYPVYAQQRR

PI3Kγ = PI3Kγ (Homo sapiens, UniProt P48736); test: PI3K-gamma fluorescence polarization assay; settings: 20 μM PIP2, 25 μM ATP; read-out: PI3Kγ Median IC50
PI3Kγ, sequence (P48736 whole entry, species assumed): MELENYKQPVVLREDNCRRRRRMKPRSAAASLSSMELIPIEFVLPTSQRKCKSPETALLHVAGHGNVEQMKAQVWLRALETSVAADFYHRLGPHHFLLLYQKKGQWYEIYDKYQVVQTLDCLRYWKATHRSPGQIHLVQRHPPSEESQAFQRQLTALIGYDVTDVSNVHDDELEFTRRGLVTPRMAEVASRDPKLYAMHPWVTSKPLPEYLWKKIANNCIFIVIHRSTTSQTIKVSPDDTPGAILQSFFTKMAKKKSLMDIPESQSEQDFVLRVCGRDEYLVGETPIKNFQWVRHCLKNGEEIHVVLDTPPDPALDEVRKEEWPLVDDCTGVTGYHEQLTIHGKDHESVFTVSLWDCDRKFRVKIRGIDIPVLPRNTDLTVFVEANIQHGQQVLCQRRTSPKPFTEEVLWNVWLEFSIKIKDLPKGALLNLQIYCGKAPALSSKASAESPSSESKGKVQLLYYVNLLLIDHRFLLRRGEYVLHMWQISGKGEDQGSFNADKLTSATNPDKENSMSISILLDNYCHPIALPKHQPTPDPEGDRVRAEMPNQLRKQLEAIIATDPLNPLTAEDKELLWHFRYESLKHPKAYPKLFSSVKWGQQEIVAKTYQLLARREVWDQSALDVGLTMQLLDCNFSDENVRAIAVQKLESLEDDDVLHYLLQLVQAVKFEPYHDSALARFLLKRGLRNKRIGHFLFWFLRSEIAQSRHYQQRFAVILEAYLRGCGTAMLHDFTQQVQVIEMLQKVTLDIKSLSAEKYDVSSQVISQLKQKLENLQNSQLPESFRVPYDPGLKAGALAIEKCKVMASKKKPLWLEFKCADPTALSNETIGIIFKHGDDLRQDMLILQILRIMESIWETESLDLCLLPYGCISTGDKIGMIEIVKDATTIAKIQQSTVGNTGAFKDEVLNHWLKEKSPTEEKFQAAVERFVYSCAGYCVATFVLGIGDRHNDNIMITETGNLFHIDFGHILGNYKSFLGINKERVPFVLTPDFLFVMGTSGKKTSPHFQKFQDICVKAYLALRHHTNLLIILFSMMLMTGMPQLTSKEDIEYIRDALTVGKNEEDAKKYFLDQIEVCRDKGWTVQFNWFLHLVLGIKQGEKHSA
Procedure, shortened: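 Enzyme preincubated with compound in 20 mM HEPES pH 7.5, 2 mM MgCl2, 0.05% CHAPS, 0.01% βME; reaction started with substrate giving 20 μM diC8 PIP2 and 25 μM ATP final, run 30-60 min at room temperature. Stopped with TAMRA-labelled PIP3 detector probe plus GST-GRP; PIP3 formation read by fluorescence polarization after 90-110 min.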

Row | SMILES | IC50 (mTOR Kinase (FLAG-TOR)) | IC50 (PI3Kα) | IC50 (PI3Kγ)
1 | CCn1ccc2c(N3CCOCC3)nc(-c3ccc(NC(=O)Nc4ccc(C(=O)NCCN5CCCC5)cc4)cc3)nc21 [Compound 76, 4-({[4-(7-ethyl-4-morpholin-4-yl-7H-pyrrolo[2,3-d]pyrimidin-2-yl)phenyl]carbamoyl}amino)-N-(2-pyrrolidin-1-ylethyl)benzamide] | 0.72 nM | 2 nM | 38 nM
2 | CCn1ccc2c(N3CCOCC3)nc(-c3ccc(NC(=O)Nc4ccc(C(=O)N5CCC(N6CCOCC6)CC5)cc4)cc3)nc21 [Compound 77, 1-[4-(7-ethyl-4-morpholin-4-yl-7H-pyrrolo[2,3-d]pyrimidin-2-yl)phenyl]-3-{4-[(4-morpholin-4-ylpiperidin-1-yl)carbonyl]phenyl}urea] | 1.75 nM | 5.5 nM | 64 nM
3 | CCn1ccc2c(N3CCOCC3)nc(-c3ccc(NC(=O)Nc4ccc(C(=O)NCCOC)cc4)cc3)nc21 [Compound 78, 4-({[4-(7-ethyl-4-morpholin-4-yl-7H-pyrrolo[2,3-d]pyrimidin-2-yl)phenyl]carbamoyl}amino)-N-(2-methoxyethyl)benzamide] | 1.15 nM | 9.5 nM | 118 nM
4 | CC(C)n1ccc2c(N3CCOCC3)nc(-c3ccc(NC(=O)Nc4ccncc4)cc3)nc21 [Compound 79, 1-[4-(7-isopropyl-4-morpholin-4-yl-7H-pyrrolo[2,3-d]pyrimidin-2-yl)phenyl]-3-pyridin-4-ylurea] | 1.15 nM | 28 nM | 193 nM
5 | CC(C)n1ccc2c(N3CCOCC3)nc(-c3ccc(NC(=O)Nc4ccc(N5CCN(C)CC5)cc4)cc3)nc21 [Compound 80, 1-[4-(7-isopropyl-4-morpholin-4-yl-7H-pyrrolo[2,3-d]pyrimidin-2-yl)phenyl]-3-[4-(4-methylpiperazin-1-yl)phenyl]urea] | 2.8 nM | 47 nM | 135 nM
6 | CC(C)n1ccc2c(N3CCOCC3)nc(-c3ccc(NC(=O)Nc4ccc(OCCN(C)C)cc4)cc3)nc21 [Compound 81, 1-{4-[2-(dimethylamino)ethoxy]phenyl}-3-[4-(7-isopropyl-4-morpholin-4-yl-7H-pyrrolo[2,3-d]pyrimidin-2-yl)phenyl]urea] | 2.95 nM | 34 nM | 219 nM
7 | CC(C)n1ccc2c(N3CCOCC3)nc(-c3ccc(NC(=O)Nc4ccc(C(=O)N5CCN(C)CC5)cc4)cc3)nc21 [Compound 82, 1-[4-(7-isopropyl-4-morpholin-4-yl-7H-pyrrolo[2,3-d]pyrimidin-2-yl)phenyl]-3-{4-[(4-methylpiperazin-1-yl)carbonyl]phenyl}urea] | 1.5 nM | 3.3 nM | 38 nM
8 | CC(C)n1ccc2c(N3CCOCC3)nc(-c3ccc(NC(=O)Nc4ccc(C(=O)N5CCNCC5)cc4)cc3)nc21 [Compound 83, 1-[4-(7-isopropyl-4-morpholin-4-yl-7H-pyrrolo[2,3-d]pyrimidin-2-yl)phenyl]-3-[4-(piperazin-1-ylcarbonyl)phenyl]urea] | 0.64 nM | < 2.3 nM | 13 nM
9 | CC(C)n1ccc2c(N3CCOCC3)nc(-c3ccc(NC(=O)Nc4ccc(C(=O)N5CCC(N(C)C)CC5)cc4)cc3)nc21 [Compound 84, 1-(4-{[4-(dimethylamino)piperidin-1-yl]carbonyl}phenyl)-3-[4-(7-isopropyl-4-morpholin-4-yl-7H-pyrrolo[2,3-d]pyrimidin-2-yl)phenyl]urea] | 0.8 nM | 4 nM | 38 nM
10 | CC(C)n1ccc2c(N3CCOCC3)nc(-c3ccc(NC(=O)Nc4ccc(C(=O)N(C)CCN(C)C)cc4)cc3)nc21 [Compound 85, N-[2-(dimethylamino)ethyl]-4-({[4-(7-isopropyl-4-morpholin-4-yl-7H-pyrrolo[2,3-d]pyrimidin-2-yl)phenyl]carbamoyl}amino)-N-methylbenzamide] | 0.61 nM | < 1.8 nM | 34 nM
11 | CC(C)n1ccc2c(N3CCOCC3)nc(-c3ccc(NC(=O)Nc4ccc(C(=O)NCCN(C)C)cc4)cc3)nc21 [Compound 86, N-[2-(dimethylamino)ethyl]-4-({[4-(7-isopropyl-4-morpholin-4-yl-7H-pyrrolo[2,3-d]pyrimidin-2-yl)phenyl]carbamoyl}amino)benzamide] | 0.38 nM | 1.7 nM | 50 nM
12 | CC(C)n1ccc2c(N3CCOCC3)nc(-c3ccc(NC(=O)Nc4ccc(C(=O)NCCN5CCCC5)cc4)cc3)nc21 [Compound 87, 4-({[4-(7-isopropyl-4-morpholin-4-yl-7H-pyrrolo[2,3-d]pyrimidin-2-yl)phenyl]carbamoyl}amino)-N-(2-pyrrolidin-1-ylethyl)benzamide] | 0.55 nM | 5 nM | 88 nM
13 | CC(C)n1ccc2c(N3CCOCC3)nc(-c3ccc(NC(=O)Nc4ccc(C(=O)N5CCC(N6CCCC6)CC5)cc4)cc3)nc21 [Compound 88, 1-[4-(7-isopropyl-4-morpholin-4-yl-7H-pyrrolo[2,3-d]pyrimidin-2-yl)phenyl]-3-{4-[(4-pyrrolidin-1-ylpiperidin-1-yl)carbonyl]phenyl}urea] | 0.59 nM | 4.3 nM | 38 nM
14 | COC(=O)c1ccc(NC(=O)Nc2ccc(-c3nc(N4CCOCC4)c4ccn(C(C)C)c4n3)cc2)cc1 [Compound 89, methyl 4-({[4-(7-isopropyl-4-morpholin-4-yl-7H-pyrrolo[2,3-d]pyrimidin-2-yl)phenyl]carbamoyl}amino)benzoate] | 4.8 nM | 116 nM | 511 nM
15 | CC(C)n1ccc2c(N3CCOCC3)nc(-c3ccc(NC(=O)Nc4ccc(C(=O)O)cc4)cc3)nc21 [Compound 90, 4-({[4-(7-isopropyl-4-morpholin-4-yl-7H-pyrrolo[2,3-d]pyrimidin-2-yl)phenyl]carbamoyl}amino)benzoic acid] | 0.81 nM | 25.7 nM | 151 nM
16 | CCn1ccc2c(N3CCOCC3)nc(-c3ccc(NC(=O)Nc4ccc(C(=O)N5CCN(C(C)C)CC5)cc4)cc3)nc21 [Compound 91, 1-[4-(7-ethyl-4-morpholin-4-yl-7H-pyrrolo[2,3-d]pyrimidin-2-yl)phenyl]-3-(4-{[4-(1-methylethyl)piperazin-1-yl]carbonyl}phenyl)urea] | 0.73 nM | 4 nM | 50 nM
17 | CCN1CCN(C(=O)c2ccc(NC(=O)Nc3ccc(-c4nc(N5CCOCC5)c5ccn(C(C)C)c5n4)cc3)cc2)CC1 [Compound 92, 1-{4-[(4-ethylpiperazin-1-yl)carbonyl]phenyl}-3-{4-[7-(1-methylethyl)-4-morpholin-4-yl-7H-pyrrolo[2,3-d]pyrimidin-2-yl]phenyl}urea] | 0.67 nM | 8.5 nM | 72 nM
18 | CC(C)N1CCN(C(=O)c2ccc(NC(=O)Nc3ccc(-c4nc(N5CCOCC5)c5ccn(C(C)C)c5n4)cc3)cc2)CC1 [Compound 93, 1-{4-[7-(1-methylethyl)-4-morpholin-4-yl-7H-pyrrolo[2,3-d]pyrimidin-2-yl]phenyl}-3-(4-{[4-(1-methylethyl)piperazin-1-yl]carbonyl}phenyl)urea] | 0.94 nM | 12 nM | 82 nM
19 | CC(C)(C)OC(=O)N1CCC(n2ccc3c(N4CCOCC4)nc(-c4ccc(NC(=O)Nc5cccnc5)cc4)nc32)CC1 [Compound 94, tert-butyl 4-(4-morpholin-4-yl-2-{4-[(pyridin-3-ylcarbamoyl)amino]phenyl}-7H-pyrrolo[2,3-d]pyrimidin-7-yl)piperidine-1-carboxylate] | 1350 nM | 11000 nM | > 10000 nM
